Source: patent US9701681B2, “Fused ring heteroaryl compounds and their use as Trk inhibitors” (CMG Pharmaceutical Co., Ltd., priority 2014, dated 2017)

How the values were obtained:
KM12-luc cells = assay: Cell proliferation assay (KM12); conditions: 72 hours exposure, read-out: IC50 (nM) Cell-based assay (KM12)
How it was run: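 KM12-luc cells were seeded at 10,000/well. TF-1 cells were first held 16 hr without GM-CSF, then seeded at 30,000/well with 10 ng/ml human β-NGF. Cells were exposed in triplicate to serial dilutions for 72 h in 10% FBS with 0.5% DMSO at 37 °C, read by AlamarBlue or CellTiter 96 for 2 hr, and GI50 was fitted.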

TRK A, B & C kinase = biological target: T1, TRK A, B & C kinase; assay: TRK A, B & C kinase assay (ADP-Glo / HTRF KinEASE-TK); type: biochemical; conditions: ADP-Glo or HTRF KinEASE-TK kit, isoform not specified, read-out: IC50 (nM) Enzymatic assay
T1 construct: fused on or other part: Carna's Trk kinases are usually GST-tagged cytoplasmic domains
How it was run: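 ADP-Glo: TrkA/B/C (0.4/0.5/3 ng/ul) with poly(Glu,Tyr), 1 h at 30° C, luminescence readout. HTRF: TRKA/B/C (0.3/0.1/0.03 ng/ul) at ATP 14.7/4.77/25.6 uM with TK-substrate, compound 0–100 nM for 40 min at RT, then detection by 665/620 ratio. Both give IC50 by curve fit.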

TF-1 cells = assay: Cell proliferation assay (TF-1); conditions: 10 ng/ml human β-NGF, 72 hours exposure, read-out: IC50 (nM) Cell-based assay (TF-1)
Experimental: Doxorubicin was purchased from Sigma Aldrich (D1515). All compounds were diluted in DMSO (Sigma Aldrich, D2650). AlamarBlue® cell viability reagent was purchased from Thermo Scientific (88952). CellTiter 96® AQueous One Solution Cell proliferation assay was purchased from Promega. KM12-luc cells were obtained from JCRB (National Institute of Health Sciences, Tokyo, Japan). They were maintained in DMEM medium (GIB-11965-118) supplemented with 10% fetal bovine serum (Gibco, 16000-044) and MEM Non-Essential Amino Acids Solution (Thermo Scientific, 11140-050). TF-1 cells were obtained from ATCC. They were maintained in RPMI medium (GIB-A10491) supplemented with 10% fetal bovine serum (Gibco, 16000-044), GM-CSF (Thermo Scientific, 11140-050), and β-NGF (R&D systems). Trypsin/EDTA was purchased from Gibco (GIB-25300-054, 0.05%). 96-well plates were purchased from Corning Inc.
The proliferation assay was performed for Chemical Compounds 1-61 s in media supplemented with 10% FBS, using AlamarBlue® cell viability reagent or CellTiter 96® AQueous One Solution Cell proliferation assay kit. Cells were cultured in humidified 37° C. incubator with 5% CO2. To evaluate the antiproliferation activity of compounds, TF-1 cells were adjusted to GM-CSF free media (RPMI, 10% FBS, and 1% penicillin-streptomycin) for 16 hr and were seeded in 96-well plates at 30,000 cells/well with medium (RPMI, 10% FBS, 1% penicillin-streptomycin and 10 ng/ml human β-NGF). KM12-luc were seeded at 10,000 cells per well into 96-well plates. After overnight incubation, serial dilutions of compounds were added to triplicate wells, and cells were exposed for 72 hours. The final concentration of DMSO was adjusted to 0.5% in media. Quantitation of cell growth was assessed using two kinds of reagent. 20 ul of AlamarBlue® reagent in an amount equal to 10% of the culture volume was added to each well and were incubated in humidified 37° C. incubator with 5% CO2 for 2 hr. Otherwise, 20 ul of CellTiter 96® reagent was added to each well and were incubated in the same conditions as previously described. Data were plotted, and GI50 values were calculated using GraphPad software. Table 1 below includes the results of the assays.

Row | SMILES | IC50 (TRK A, B & C kinase) [nM] | IC50 (KM12-luc cells) [nM] | IC50 (TF-1 cells) [nM]
1 | COCCNC(=O)/C=C/c1cnn2ccc(N3CCCC3c3cc(F)ccc3F)nc12 (stereo not drawn) [Chemical Compound 46, (E)-3-(5-(2-(2,5-difluorophenyl)pyrrolidin-1-yl)pyrazolo[1,5-a]pyrimidin-3-yl)-N-(2-methoxyethyl)-acrylamide] | < 10 | < 100 | < 100
2 | O=C(/C=C/c1cnn2ccc(N3CCCC3c3cc(F)ccc3F)nc12)N1CC(O)C1 (stereo not drawn) [Chemical Compound 47, (E)-3-(5-(2-(2,5-difluorophenyl)pyrrolidin-1-yl)pyrazolo[1,5-a]pyrimidin-3-yl)-1-(3-hydroxyazetidin-1-yl)prop-2-en-1-one] | < 10 | < 100 | < 100
3 | O=C(/C=C/c1cnn2ccc(N3CCC[C@@H]3c3cc(F)ccc3F)nc12)NCCO [Chemical Compound 48, (R,E)-3-(5-(2-(2,5-difluorophenyl)pyrrolidin-1-yl)pyrazolo[1,5-a]pyrimidin-3-yl)-N-(2-hydroxyethyl)-acrylamide] | < 10 | < 100 | < 100

Continued, in another order:

Row | IC50 (TRK A, B & C kinase) [nM] | SMILES | IC50 (KM12-luc cells) [nM] | IC50 (TF-1 cells) [nM]
4 | < 10 | O=C(/C=C/c1cnn2ccc(N3CCC[C@@H]3c3cc(F)ccc3F)nc12)N1CCOCC1 [Chemical Compound 49, (R,E)-3-(5-(2-(2,5-difluorophenyl)pyrrolidin-1-yl)pyrazolo[1,5-a]pyrimidin-3-yl)-1-morpholinoprop-2-en-1-one] | < 100 | < 10
5 | < 10 | O=C(/C=C/c1cnn2ccc(N3CCC[C@@H]3c3cc(F)ccc3F)nc12)N1CCNCC1 [Chemical Compound 50, (R,E)-3-(5-(2-(2,5-difluorophenyl)pyrrolidin-1-yl)pyrazolo[1,5-a]pyrimidin-3-yl)-1-(piperazin-1-yl)prop-2-en-1-one] | < 10 | < 100
6 | < 10 | O=C(C#Cc1cnn2ccc(N3CCCC3c3cc(F)ccc3F)nc12)N1CCOCC1 (stereo not drawn) [Chemical Compound 61, 3-(5-(2-(2,5-difluorophenyl)pyrrolidin-1-yl)pyrazolo[1,5-a]pyrimidin-3-yl)-1-morpholinoprop-2-yn-1-one] | < 100 | < 100
